Measured values reported in article PMC6803849, “Biodistribution of Nanostructured Lipid Carriers in Mice Atherosclerotic Model” (Molecules, 2019).

Columns and labels:
Assay in all cases: MMP inhibition assay with fluorogenic substrate
Type in all cases: biochemical
[1] = biological target: T1, hMMP-13 (Homo sapiens, UniProt P45452)
T1 construct: made in house
Description: (§1) The binding capacity of the RXP470.1 ligand grafted on RXP-NLC surface was first assessed through an inhibition assay in the presence of a fluorogenic substrate. The affinity and selectivity profile of RXP-NLC was determined on a set of eight human MMPs and compared to the parent ligand.
(§2) Affinity and selectivity profile of RXP-NLC were determined toward a set of 8 human MMPs. Human MMP-8, -9, -12, and -13 were produced at CEA in Saclay according to a procedure previously reported. Other MMPs were purchased from R&D Systems (Minneapolis, MN, USA). MMP inhibition assays were carried out in 50 mM Tris-HCl buffer, pH = 6.8, 10 mM CaCl2 at 25 °C as previously described. Pro-MMPs were pre-activated by p-aminophenylmercuric acetate following the method described by R&D Systems. Titration experiments were carried out to determine the active enzyme concentration for each MMP prior to the assay. Continuous kinetic assays were performed by recording the fluorescence increase induced by the cleavage of fluorogenic substrates (Mca-Pro-Leu- Gly-Leu-Dpa-Ala-Arg-NH2 for MMP-1, -2, -7, -8, -9, -10, -12, -13, and -14 and Mca-Arg-Pro-Lys-Pro- Val-Glu- Nva-Trp-Arg-LysDNP-NH2 for MMP-3). A typical experiment was performed in 200 μL of Tris buffer containing 0.2–0.5 nM of MMP, and a 4.5 μM concentration of fluorogenic substrates. Black, flat-bottomed, 96-well non-binding surface plates (Corning-Costar, Schiphol-RijK, Netherlands) were used for these tests. Fluorescence signals were monitored using a Fluoroskan Ascent photon counter spectrophotometer (Thermo-Labsystems, Courtaboeuf, France) equipped with a temperature control device and a plate shaker. […] Ki values were determined using the method proposed by Horovitz and Leviski.

[2] = biological target: T2, hMMP-12 (Homo sapiens, UniProt P39900)
T2 construct: made in house
T2 sequence (P39900 106-470): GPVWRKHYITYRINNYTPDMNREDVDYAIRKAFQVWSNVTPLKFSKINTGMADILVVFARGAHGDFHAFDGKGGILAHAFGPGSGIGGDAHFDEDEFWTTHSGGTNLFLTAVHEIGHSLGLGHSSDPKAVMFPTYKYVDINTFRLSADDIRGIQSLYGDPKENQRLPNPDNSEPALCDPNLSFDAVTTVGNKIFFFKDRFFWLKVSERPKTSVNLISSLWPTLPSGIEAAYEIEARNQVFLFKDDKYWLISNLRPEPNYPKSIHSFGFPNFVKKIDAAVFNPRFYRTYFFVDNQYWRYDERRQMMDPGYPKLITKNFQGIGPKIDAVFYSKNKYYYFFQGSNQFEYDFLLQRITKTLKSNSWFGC
Description: as §1, §2

[3] = biological target: T3, hMMP-10 (Homo sapiens, UniProt P09238)
T3 construct: purchased R&D Systems
T3 sequence (P09238 99-476): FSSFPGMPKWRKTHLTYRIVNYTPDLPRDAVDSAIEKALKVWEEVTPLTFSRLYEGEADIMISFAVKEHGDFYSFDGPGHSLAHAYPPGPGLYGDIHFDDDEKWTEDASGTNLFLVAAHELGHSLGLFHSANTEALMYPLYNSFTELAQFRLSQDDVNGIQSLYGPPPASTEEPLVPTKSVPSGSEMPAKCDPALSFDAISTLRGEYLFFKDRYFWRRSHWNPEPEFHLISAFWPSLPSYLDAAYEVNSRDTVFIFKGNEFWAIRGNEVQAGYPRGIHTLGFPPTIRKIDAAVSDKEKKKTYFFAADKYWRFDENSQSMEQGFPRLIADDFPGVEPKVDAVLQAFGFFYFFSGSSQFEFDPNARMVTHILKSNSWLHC
Description: as §1, §2

[4] = biological target: T4, hMMP-14 (Homo sapiens, UniProt P50281)
T4 construct: purchased R&D Systems
Description: as §1, §2

[5] = biological target: T5, hMMP-2 (Homo sapiens, UniProt P08253)
T5 construct: purchased R&D Systems
T5 sequence (P08253 110-660): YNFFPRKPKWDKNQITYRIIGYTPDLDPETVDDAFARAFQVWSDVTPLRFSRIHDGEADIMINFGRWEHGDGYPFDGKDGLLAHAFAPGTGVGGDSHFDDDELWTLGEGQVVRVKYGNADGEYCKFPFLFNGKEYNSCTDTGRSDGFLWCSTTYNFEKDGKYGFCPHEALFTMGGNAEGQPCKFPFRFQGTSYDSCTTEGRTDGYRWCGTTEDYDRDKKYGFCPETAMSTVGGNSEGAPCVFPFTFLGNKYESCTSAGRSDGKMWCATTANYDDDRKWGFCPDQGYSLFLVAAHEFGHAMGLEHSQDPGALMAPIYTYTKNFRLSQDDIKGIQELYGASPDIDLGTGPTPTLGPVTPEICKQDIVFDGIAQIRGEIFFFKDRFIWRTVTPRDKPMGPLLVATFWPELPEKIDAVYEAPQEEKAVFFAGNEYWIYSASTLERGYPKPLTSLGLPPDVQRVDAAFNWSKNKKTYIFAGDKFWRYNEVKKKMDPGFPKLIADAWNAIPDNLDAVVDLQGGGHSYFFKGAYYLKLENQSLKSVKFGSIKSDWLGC
Description: as §1, §2

[6] = biological target: T6, hMMP-8 (Homo sapiens, UniProt P22894)
T6 construct: made in house
T6 sequence (P22894 101-467): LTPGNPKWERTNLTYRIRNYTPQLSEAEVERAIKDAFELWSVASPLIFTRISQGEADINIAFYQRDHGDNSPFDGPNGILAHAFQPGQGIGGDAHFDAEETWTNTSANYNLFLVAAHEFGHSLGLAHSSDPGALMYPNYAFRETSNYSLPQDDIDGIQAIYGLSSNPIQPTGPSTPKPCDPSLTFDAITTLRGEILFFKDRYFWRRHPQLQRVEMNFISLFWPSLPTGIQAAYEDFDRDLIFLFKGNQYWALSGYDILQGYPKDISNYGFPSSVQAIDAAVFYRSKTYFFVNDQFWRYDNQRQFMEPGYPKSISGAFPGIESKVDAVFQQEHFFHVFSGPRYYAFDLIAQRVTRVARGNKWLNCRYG
Description: as §1, §2

[7] = biological target: T7, hMMP-9 (Homo sapiens, UniProt P14780)
T7 construct: made in house
T7 sequence (P14780 94-707): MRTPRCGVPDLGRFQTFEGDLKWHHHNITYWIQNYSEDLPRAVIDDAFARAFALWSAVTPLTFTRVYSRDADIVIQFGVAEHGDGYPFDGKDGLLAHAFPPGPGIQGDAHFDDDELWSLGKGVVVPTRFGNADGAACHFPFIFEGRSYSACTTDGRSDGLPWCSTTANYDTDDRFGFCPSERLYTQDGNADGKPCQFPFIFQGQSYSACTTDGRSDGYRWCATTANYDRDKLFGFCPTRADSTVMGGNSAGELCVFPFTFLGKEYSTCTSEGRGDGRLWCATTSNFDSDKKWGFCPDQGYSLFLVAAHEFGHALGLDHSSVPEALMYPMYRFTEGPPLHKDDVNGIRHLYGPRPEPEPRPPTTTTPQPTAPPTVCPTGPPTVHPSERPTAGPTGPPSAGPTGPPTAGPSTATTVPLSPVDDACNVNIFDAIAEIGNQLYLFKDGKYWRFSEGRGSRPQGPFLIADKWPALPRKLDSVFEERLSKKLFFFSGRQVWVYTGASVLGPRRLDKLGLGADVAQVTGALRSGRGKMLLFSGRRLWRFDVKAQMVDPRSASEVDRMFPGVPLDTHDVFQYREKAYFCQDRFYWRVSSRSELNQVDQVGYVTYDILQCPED
Description: as §1, §2

[8] = biological target: T8, hMMP-3 (Homo sapiens, UniProt P08254)
T8 construct: purchased R&D Systems
T8 sequence (P08254 100-477): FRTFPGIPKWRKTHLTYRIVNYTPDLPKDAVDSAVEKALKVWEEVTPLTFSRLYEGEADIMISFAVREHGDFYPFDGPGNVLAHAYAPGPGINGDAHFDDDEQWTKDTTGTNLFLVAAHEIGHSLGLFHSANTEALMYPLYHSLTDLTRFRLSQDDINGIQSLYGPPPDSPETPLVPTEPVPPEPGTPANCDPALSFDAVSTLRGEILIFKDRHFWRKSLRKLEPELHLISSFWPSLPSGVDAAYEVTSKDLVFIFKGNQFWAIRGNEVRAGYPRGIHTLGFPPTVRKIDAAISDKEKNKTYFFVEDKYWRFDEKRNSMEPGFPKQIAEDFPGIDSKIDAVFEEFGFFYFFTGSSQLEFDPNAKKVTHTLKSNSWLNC
Description: as §1, §2

Structure (SMILES): NC(=O)[C@H](CCC(=O)O)NC(=O)[C@H](CCC(=O)O)NC(=O)[C@H](Cc1cc(-c2ccc(-c3cccc(Cl)c3)cc2)no1)CP(=O)(O)c1ccc(Br)cc1 [RXP470.1]
- Ki [1]: 11 ± 1 nM
- Selectivity factor hMMP-13 ([1]; relative to hMMP12): 42
- Ki ([2]; 50 mM Tris-HCl buffer, pH 6.8, 10 mM CaCl2, 25 °C, mean ± SD of three independent experiments): 0.26 ± 0.05 nM
- Selectivity factor hMMP-12 ([2]; relative to hMMP12): 1
- Ki [3]: 17 ± 2 nM
- Selectivity factor hMMP-10 ([3]; relative to hMMP12): 65
- Ki [4]: 150 ± 21 nM
- Selectivity factor hMMP-14 ([4]; relative to hMMP12): 577
- Ki [5]: 52 ± 4 nM
- Selectivity factor hMMP-2 ([5]; relative to hMMP12): 200
- Ki [6]: 120 ± 40 nM
- Selectivity factor hMMP-8 ([6]; relative to hMMP12): 462
- Ki [7]: 170 ± 50 nM
- Selectivity factor hMMP-9 ([7]; relative to hMMP12): 654
- Ki [8]: 80 ± 2 nM
- Selectivity factor hMMP-3 ([8]; relative to hMMP12): 308
